We go through 48 compounds from PubChem BioAssay AID624344 (Sanford-Burnham Center for Chemical Genomics, 2012).

Experiment [1] in a line: inhibitors of PAF-induced NFkB signaling in CF airway cells, dose response, cell-based, uHTS hits, panel, cytotoxicity readout (AID 624344). The conditions noted are these: CF bronchial epithelial cells, PAF-induced NFkB reporter inhibition; with PAF, mean of runs.
For a further experiment, the system named is Cytotoxicity. The description is as above. The conditions noted are these: CF bronchial epithelial cells, mean of runs.

Calls of active or inactive are those of the source. How the calls were made is not given here. Where only a bound is given, the exact number is not on record here.

For `Cc1cccc(NC(=O)c2nc[nH]c2C(=O)NCCCNC(=O)c2[nH]cnc2C(=O)Nc2cccc(C)c2)c1`, the results for the IC50 (in experiment [1]; with Cytotoxicity) were 4.07 µM and 11.4 µM, respectively.
As to `COc1ccc(OC)c(-c2nnc3n2N=C(c2ccc(OC)c(OC4CCOC4)c2)CS3)c1` (stereo unspecified), the concentration for half-maximal inhibition (IC50) in experiment [1] was 1.71 µM; in the experiment on Cytotoxicity it was > 79 µM (inactive).
The corresponding values for `C#CCN(C[C@@H]1[C@@H](OC(=O)NCc2ccco2)[C@@H](OC(=O)NCc2ccco2)Cn2c(=O)ccc(=O)n21)S(=O)(=O)c1ccc(C)cc1` are 3.11 µM and 18.3 µM.
The corresponding values for `c1csc(CNc2ncnc3ccc(-c4ccoc4)cc23)c1` are 0.194 µM and 7.68 µM.
For `O=[N+]([O-])c1ccc(O)c(C2CCCCC2)c1`, in that order: 2.04 µM and 3.28 µM.
For `O=C(Nc1ccccc1N1CCOCC1)c1cc(-c2ccco2)nc2ccccc12`, the IC50 in experiment [1] is 3.88 µM; in the experiment on Cytotoxicity, 9.59 µM.
For `O=C(/C=C/c1cccc([N+](=O)[O-])c1)n1cnc2ccccc21`, in that order: 1.99 µM and 11.2 µM.
On to `O=C1/C(=C/c2cccnc2)CCc2c1[nH]c1ccccc21`, for which the IC50 in experiment [1] was 5.47 µM; in the experiment with Cytotoxicity, 25.1 µM.
The corresponding values for `C=C1C(=O)O[C@H]2C[C@H]1[C@@H](OC(C)=O)C/C(C)=C/CC/C(C)=C\CC[C@]2(C)O` are 2 µM and 2.39 µM.
For `Cc1cc(N2C(=O)C(O)=C(C(=O)c3ccc(C)o3)C2c2cccc(Oc3ccccc3)c2)no1` (stereo unspecified), in that order: 10.6 µM and 41.7 µM.
For `O=C(Nc1nnc(S(=O)(=O)N2CCCCCC2)s1)c1cccc(Br)c1`, in that order: 2.68 µM and 7.27 µM.
Turning to `Fc1ccc(-n2cc(-c3ccccc3)c3c(N4CCOCC4)ncnc32)cc1`, the IC50 in experiment [1] was 3.21 µM; with Cytotoxicity, 8.13 µM.
The corresponding values for `COCCNc1nc(Oc2cncc(Cl)c2)c2sccc2n1` are 2.9 µM and 29.1 µM.
The corresponding values for `COc1ccc(OC)c(-c2nnc3n2N=C(c2ccc(OC)c(OC4CCCC4)c2)CS3)c1` are 6.47 µM and > 79 µM (inactive).
The corresponding values for `Cc1ccccc1C(=O)N1CCN(c2ccc(NC(=O)CSc3ccc(Cl)cc3)cc2)CC1` are 0.879 µM and > 79 µM (inactive).
With `Cc1cc(C)c(C#N)c(SCC(=O)c2ccc(Cl)cc2Cl)n1`, the results for the concentration for half-maximal inhibition (IC50) (in experiment [1]; in the experiment on Cytotoxicity) were 6.02 µM and 14.8 µM, respectively.
The corresponding values for `Cc1nn(-c2ccccc2)c(Cl)c1C(=O)N1CCN(c2ncnc3c2cnn3-c2ccccc2)CC1` are 3.18 µM and 1.42 µM.
For `COc1ccc(-c2cc(NC=O)c3ncc(-c4ccc(OC)c(OC)c4)n3c2)c(OC)c1`, in that order: 11.7 µM and 29.8 µM.
Take `Brc1ccc2ncnc(NCc3ccccc3)c2c1`: the IC50 in experiment [1] is 0.506 µM; in the experiment with Cytotoxicity, 6.15 µM.
For the compound `C=C1C(=O)[C@]23C[C@H]1CCC2[C@@]1(C)C(C[C@@H]3O)[C@](C)(C(=O)O)CC[C@@H]1O` (stereo partly specified), the IC50 is 1.98 µM in experiment [1] and 13.1 µM with Cytotoxicity.
Regarding `CN(C)C=Nc1c(C(=O)c2ccccc2)sc2nccc(N(C)C)c12`, the figures for the IC50 (in experiment [1]; with Cytotoxicity) were 10.9 µM and > 79 µM (inactive), respectively.
On to `O=C(Nc1ccc(Br)c2ccccc12)c1ccc2ccccc2c1O`, for which the results for the IC50 (in experiment [1]; in the experiment on Cytotoxicity) were 1.93 µM and 2.38 µM, respectively.
On to `COc1ccc(CN(C(=O)CSc2nnc(-c3c[nH]c4ccccc34)o2)c2ccc(F)cc2)cc1OC`, for which the IC50 is 3.94 µM in experiment [1] and 7.44 µM in the experiment on Cytotoxicity.
For `CCN(c1ccc(OC)cc1)c1ncnc2nc[nH]c12`, in that order: 3.62 µM and > 79 µM (inactive).
The corresponding values for `CC(=O)OCCCNc1cc(Sc2ccc(Cl)cc2)c2nonc2c1[N+](=O)[O-]` are 13 µM and 11.1 µM.
Take `Cn1ncc2c(O/N=C(\N)c3ccc(C(C)(C)C)cc3)ncnc21`: the IC50 in experiment [1] was 8.28 µM; with Cytotoxicity it was 34.9 µM.
Consider `COc1ccc2cc(C(N)=O)c(=Nc3ccc(C)cc3)oc2c1`, for which the figures for the IC50 (in experiment [1]; in the experiment with Cytotoxicity) were 2.58 µM and 13.3 µM, respectively.
Take `CC(=O)Oc1ccc(N(C(C)=O)S(=O)(=O)c2ccc(Cl)cc2)c2ccccc12`: the 50% inhibitory concentration (IC50) in experiment [1] is 7.37 µM; in the experiment with Cytotoxicity, 22.8 µM.
On to `COc1cc2c(c(OC)c1OC)-c1ccc(NCc3ccccc3)c(=O)cc1C(NC(C)=O)CC2` (stereo unspecified), for which the 50% inhibitory concentration (IC50) in experiment [1] is 15.5 µM; with Cytotoxicity, 45.8 µM.
As to `CN(C)CCCN(C(=O)CCOc1ccccc1)c1nc2ccc(F)cc2s1`, the results for the IC50 (in experiment [1]; in the experiment with Cytotoxicity) were 2.53 µM and 12.7 µM, respectively.
In the case of `CCc1nccn1C(=O)c1cnn2c(C(F)F)cc(-c3ccc(C)cc3)nc12`, the values for the IC50 (in experiment [1]; with Cytotoxicity) were 3.86 µM and 6.64 µM, respectively.
The corresponding values for `COc1ccc2[nH]cc(C(=O)CCl)c2c1` are 1.21 µM and 1.94 µM.
Consider `c1ccc2c(-c3cncc4ccccc34)cncc2c1`, for which the results for the IC50 (in experiment [1]; with Cytotoxicity) were 6.1 µM and 56.9 µM (inactive), respectively.
The corresponding values for `O=C(NC1CCCC(C(F)(F)F)C1)c1ccc([N+](=O)[O-])o1` (stereo unspecified) are 3.87 µM and 11 µM.
As to `Nc1ncnc(Sc2ccc(Cl)cc2)c1[N+](=O)[O-]`, the IC50 in experiment [1] is 4.13 µM; in the experiment with Cytotoxicity, 11.6 µM.
As for `CN(c1ncnc(N)c1[N+](=O)[O-])C1CCS(=O)(=O)C1` (stereo unspecified), the values for the IC50 (in experiment [1]; with Cytotoxicity) were 2.79 µM and > 79 µM (inactive), respectively.
The corresponding values for `O=C(Nc1ccc(F)cc1)Nc1ccc(N2CCCC2)c(S(=O)(=O)Nc2ccccc2Cl)c1` are 7.2 µM and 42.5 µM.
With `O=C1Nc2ccccc2/C1=C/c1ccnc2ccccc12`, the IC50 in experiment [1] was 5.85 µM; in the experiment with Cytotoxicity, 36.3 µM.
The corresponding values for `Cc1ccc(S(=O)(=O)Nc2cccc3cccnc23)c([N+](=O)[O-])c1` are 2.84 µM and > 79 µM (inactive).
For `Cc1ccc(-c2cc(C(=O)N(C)Cc3cnn(C)c3C)c3cc(Br)ccc3n2)cc1`, in that order: 5.57 µM and 14.4 µM.
The corresponding values for `O=C(Nc1nnc(C(F)(F)F)s1)c1ccc(Br)s1` are 2.28 µM and 27.8 µM.
With `Cc1[nH]nc2c1-c1nc3ccccc3nc1C(C)(C)C2`, the IC50 in experiment [1] is 10.4 µM; in the experiment on Cytotoxicity it was > 79 µM (inactive).
As for `COc1ccc(C2=Nn3c(nnc3-c3ccccc3OC)SC2)cc1OC1CCCC1`, the IC50 in experiment [1] was 0.229 µM; in the experiment on Cytotoxicity it was > 79 µM (inactive).
Take `Cc1cccc(CNc2ncnc3ccc(-c4ccoc4)cc23)c1`: the results for the IC50 (in experiment [1]; with Cytotoxicity) were under 0.15 µM and 6.04 µM, respectively.
The corresponding values for `O=C(Nc1cccc(-c2cnc3ccccc3n2)c1)c1cccc(NC(=O)c2ccco2)c1` are 3.68 µM and 6.82 µM.
Regarding `CCN1CCN(Cc2ccc(NC(=O)c3ccc(C)c(NC(=O)N4CCNC4=O)c3)cc2C(F)(F)F)CC1`, the IC50 is 1.62 µM in experiment [1] and 29.2 µM with Cytotoxicity.
The corresponding values for `CCOc1cc2c(cc1O)C(=NOC)CC1C2CCC2(C)C(O)CCC12` (stereo unspecified) are 7.69 µM and > 79 µM (inactive).
The corresponding values for `COc1ccc(/C=N/NC(=O)c2[nH]c3ccc(Br)cc3c2-c2ccccc2)cc1` are 9.3 µM and 27 µM.
